Kd data for 4 compounds are collected here from publication doi:10.1101/801928v2 (biorxiv, 2019).

pKd: −log10 of the molar value.

For the experiment, the target named is T1, HmtS (Streptomyces himastatinicus, UniProt G0LWB2).
T1 sequence (G0LWB2 2-397): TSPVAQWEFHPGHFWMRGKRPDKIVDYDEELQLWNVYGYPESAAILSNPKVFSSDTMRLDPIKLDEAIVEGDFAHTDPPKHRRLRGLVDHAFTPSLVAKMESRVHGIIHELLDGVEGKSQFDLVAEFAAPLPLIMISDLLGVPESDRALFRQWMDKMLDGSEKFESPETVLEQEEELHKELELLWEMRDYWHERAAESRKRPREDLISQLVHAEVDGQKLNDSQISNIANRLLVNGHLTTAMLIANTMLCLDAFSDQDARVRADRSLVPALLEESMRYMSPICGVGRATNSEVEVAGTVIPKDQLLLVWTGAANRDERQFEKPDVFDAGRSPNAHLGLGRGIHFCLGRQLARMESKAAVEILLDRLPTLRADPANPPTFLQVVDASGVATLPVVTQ
As to the kind of experiment: microscale thermophoresis, NT647-labelled enzyme. It is filed as binding.
Compound `Cc1cc2nc3c(=O)[nH]c(=O)nc-3n(C[C@H](O)[C@H](O)[C@H](O)CO)c2cc1C` [riboflavin] had a negative logarithm of the Kd (pKd) of 5.72. Next, `Cc1cc2nc3c(=O)[nH]c(=O)nc-3n(C[C@H](O)[C@H](O)[C@H](O)COP(=O)(O)O)c2cc1C` [FMN]: 4.40; `Cc1cc2nc3c(=O)[nH]c(=O)nc-3n(C[C@H](O)[C@H](O)[C@H](O)COP(=O)(O)OP(=O)(O)OC[C@H]3O[C@@H](n4cnc5c(N)ncnc54)[C@H](O)[C@@H]3O)c2cc1C` [FAD]: 4.37. Next, `NC(=O)C1=CN([C@@H]2O[C@H](COP(=O)(O)OP(=O)(O)OC[C@H]3O[C@@H](n4cnc5c(N)ncnc54)[C@H](OP(=O)(O)O)[C@@H]3O)[C@@H](O)[C@H]2O)C=CC1` [NADPH]: 4.08.
